Measurements from ChEMBL document CHEMBL6153110, “Peptide Double-Stapling and Arginine N-Glycosylation Triggered the Development of Therapeutic Antimicrobial Peptides Capable of Killing Drug-Resistant Bacteria in Mice” (J Med Chem, 2025).
Converted amounts (≈) assume the structure as drawn. Positions of bridges follow the written chain, without caps; N, C: chain ends. Non-standard residues stand in square brackets, D forms with d. Residues, ends and D or L forms follow the SMILES beside them. R8 = C=CCCCCCC[C@@](C)(N)C(=O)O; S5 = C=CCCC[C@](C)(N)C(=O)O

Key:
Assay type in all cases: functional
Pseudomonas aeruginosa = assay: Antimicrobial activity against Pseudomonas aeruginosa ATCC 27853 assessed as growth inhibition measured after 8 hrs incubation by standard broth dilution assay
Streptococcus pneumoniae = assay: Antimicrobial activity against Streptococcus pneumoniae ATCC 49619 assessed as growth inhibition measured after 8 hrs incubation by standard broth dilution assay
Staphylococcus aureus = assay: Antimicrobial activity against methicillin-resistant Staphylococcus aureus ATCC 43300 assessed as growth inhibition measured after 8 hrs incubation by standard broth dilution assay
Klebsiella pneumoniae = assay: Antimicrobial activity against Klebsiella pneumoniae ATCC 13883 assessed as growth inhibition measured after 8 hrs incubation by standard broth dilution assay

Row | Compound | MIC (Pseudomonas aeruginosa) [µg/mL] | MIC (Streptococcus pneumoniae) [µg/mL] | MIC (Staphylococcus aureus) [µg/mL] | MIC (Klebsiella pneumoniae) [µg/mL]
1 | CC(=O)N[C@@H](CC(C)C)C(=O)N[C@@H](CCCCN)C(=O)N[C@@H](CCCNC(=N)N)C(=O)N[C@H](C(=O)N[C@]1(C)CCCCCC/C=C\CCC[C@@](C)(C(=O)N[C@@H](CCCCN)C(=O)N[C@@H](CCCNC(=N)N)C(=O)N[C@@H](Cc2ccc(O)cc2)C(=O)N[C@@H](Cc2c[nH]c3ccccc23)C(=O)N[C@@H](CCCNC(=N)N)C(=O)N[C@@H](CCC(N)=O)C(=O)N[C@@H](CC(C)C)C(=O)N[C@@H](CCCCN)C(=O)N[C@@H](CCCCN)C(=O)N2CCC[C@H]2C(=O)N[C@H](C(=O)N[C@@H](CCCNC(=N)N)C(N)=O)C(C)C)NC(=O)[C@H](CC(C)C)NC(=O)[C@H](CCCCN)NC(=O)[C@H](Cc2ccccc2)NC(=O)[C@H](C(C)C)NC(=O)[C@H](CCCNC(=N)N)NC(=O)[C@H](CCCCN)NC1=O)C(C)C (Ac-LKRV[R8]KRVFKL[S5]KRYWRQLKKPVR-NH2; staple (Z) 5-12) | 19.3 (≈ 5.92 µM) | 9.6 (≈ 2.94 µM) | 9.7 (≈ 2.98 µM) | 38 (≈ 11.7 µM)
2 | CC(=O)N[C@@H](CC(C)C)C(=O)N[C@@H](CCCCN)C(=O)N[C@@H](CCCNC(=N)N)C(=O)N[C@H](C(=O)N[C@@H](Cc1c[nH]c2ccccc12)C(=O)N[C@@H](CCCCN)C(=O)N[C@@H](CCCNC(=N)N)C(=O)N[C@H](C(=O)N[C@@H](Cc1ccccc1)C(=O)N[C@@H](CCCCN)C(=O)N[C@@H](CC(C)C)C(=O)N[C@@]1(C)CCC/C=C\CCC[C@@](C)(C(=O)N[C@@H](CCCNC(=N)N)C(=O)N[C@@H](CCC(N)=O)C(=O)N[C@@H](CC(C)C)C(=O)N[C@@H](CCCCN)C(=O)N[C@@H](CCCCN)C(=O)N2CCC[C@H]2C(=O)N[C@H](C(=O)N[C@@H](CCCNC(=N)N)C(N)=O)C(C)C)NC(=O)[C@H](Cc2ccc(O)cc2)NC(=O)[C@H](CCCNC(=N)N)NC(=O)[C@H](CCCCN)NC1=O)C(C)C)C(C)C (Ac-LKRVWKRVFKL[S5]KRY[S5]RQLKKPVR-NH2; staple (Z) 12-16) | 5 (≈ 1.55 µM) | 4.7 (≈ 1.46 µM) | 9.7 (≈ 3.01 µM) | 38 (≈ 11.8 µM)
3 | CC(=O)N[C@@H](CC(C)C)C(=O)N[C@@H](CCCCN)C(=O)N[C@@H](CCCNC(=N)N)C(=O)N[C@H](C(=O)N[C@@H](Cc1c[nH]c2ccccc12)C(=O)N[C@@H](CCCCN)C(=O)N[C@@H](CCCNC(=N)N)C(=O)N[C@@]1(C)CCC/C=C\CCC[C@@](C)(C(=O)N[C@@H](CCCCN)C(=O)N[C@@H](CCCNC(=N)N)C(=O)N[C@@H](Cc2ccc(O)cc2)C(=O)N[C@@H](Cc2c[nH]c3ccccc23)C(=O)N[C@@H](CCCNC(=N)N)C(=O)N[C@@H](CCC(N)=O)C(=O)N[C@@H](CC(C)C)C(=O)N[C@@H](CCCCN)C(=O)N[C@@H](CCCCN)C(=O)N2CCC[C@H]2C(=O)N[C@H](C(=O)N[C@@H](CCCNC(=N)N)C(N)=O)C(C)C)NC(=O)[C@H](CC(C)C)NC(=O)[C@H](CCCCN)NC(=O)[C@H](Cc2ccccc2)NC1=O)C(C)C (Ac-LKRVWKR[S5]FKL[S5]KRYWRQLKKPVR-NH2; staple (Z) 8-12) | 5 (≈ 1.51 µM) | 37.7 (≈ 11.4 µM) | 2.5 (≈ 0.756 µM) | 38 (≈ 11.5 µM)
4 | CC(=O)N[C@@H](CC(C)C)C(=O)N[C@@H](CCCCN)C(=O)N[C@@H](CCCNC(=N)N)C(=O)N[C@H](C(=O)N[C@@H](Cc1c[nH]c2ccccc12)C(=O)N[C@@H](CCCCN)C(=O)N[C@@H](CCCNC(=N)N)C(=O)N[C@H](C(=O)N[C@@H](Cc1ccccc1)C(=O)N[C@@H](CCCCN)C(=O)N[C@@H](CC(C)C)C(=O)N[C@@H](CC(C)C)C(=O)N[C@@H](CCCCN)C(=O)N[C@@H](CCCNC(=N)N)C(=O)N[C@]1(C)CCCCCC/C=C\CCC[C@@](C)(C(=O)N[C@H](C(=O)N[C@@H](CCCNC(=N)N)C(N)=O)C(C)C)NC(=O)[C@H](CCCCN)NC(=O)[C@H](CCCCN)NC(=O)[C@H](CC(C)C)NC(=O)[C@H](CCC(N)=O)NC(=O)[C@H](CCCNC(=N)N)NC(=O)[C@H](Cc2c[nH]c3ccccc23)NC1=O)C(C)C)C(C)C (Ac-LKRVWKRVFKLLKR[R8]WRQLKK[S5]VR-NH2; staple (Z) 15-22) | 9.9 (≈ 3 µM) | 37.7 (≈ 11.4 µM) | 4.9 (≈ 1.49 µM) | 38 (≈ 11.5 µM)
5 | CC(=O)N[C@@]1(C)CCC/C=C\CCC[C@@](C)(C(=O)N[C@@H](CCCCN)C(=O)N[C@@H](CCCNC(=N)N)C(=O)N[C@H](C(=O)N[C@@H](Cc2ccccc2)C(=O)N[C@@H](CCCCN)C(=O)N[C@@H](CC(C)C)C(=O)N[C@@H](CC(C)C)C(=O)N[C@@H](CCCCN)C(=O)N[C@@H](CCCNC(=N)N)C(=O)N[C@@H](Cc2ccc(O)cc2)C(=O)N[C@@H](Cc2c[nH]c3ccccc23)C(=O)N[C@@H](CCCNC(=N)N)C(=O)N[C@@H](CCC(N)=O)C(=O)N[C@@H](CC(C)C)C(=O)N[C@@H](CCCCN)C(=O)N[C@@H](CCCCN)C(=O)N2CCC[C@H]2C(=O)N[C@H](C(=O)N[C@@H](CCCNC(=N)N)C(N)=O)C(C)C)C(C)C)NC(=O)[C@H](C(C)C)NC(=O)[C@H](CCCNC(=N)N)NC(=O)[C@H](CCCCN)NC1=O (Ac-[S5]KRV[S5]KRVFKLLKRYWRQLKKPVR-NH2; staple (Z) 1-5) | 2.6 (≈ 0.808 µM) | 37.7 (≈ 11.7 µM) | 2.5 (≈ 0.777 µM) | 38 (≈ 11.8 µM)
6 | CC(=O)N[C@@H](CC(C)C)C(=O)N[C@@H](CCCCN)C(=O)N[C@@H](CCCNC(=N)N)C(=O)N[C@H](C(=O)N[C@@H](Cc1c[nH]c2ccccc12)C(=O)N[C@@H](CCCCN)C(=O)N[C@@H](CCCNC(=N)N)C(=O)N[C@H](C(=O)N[C@@]1(C)CCC/C=C\CCC[C@@](C)(C(=O)N[C@@H](CCCNC(=N)N)C(=O)N[C@@H](Cc2ccc(O)cc2)C(=O)N[C@@H](Cc2c[nH]c3ccccc23)C(=O)N[C@@H](CCCNC(=N)N)C(=O)N[C@@H](CCC(N)=O)C(=O)N[C@@H](CC(C)C)C(=O)N[C@@H](CCCCN)C(=O)N[C@@H](CCCCN)C(=O)N2CCC[C@H]2C(=O)N[C@H](C(=O)N[C@@H](CCCNC(=N)N)C(N)=O)C(C)C)NC(=O)[C@H](CC(C)C)NC(=O)[C@H](CC(C)C)NC(=O)[C@H](CCCCN)NC1=O)C(C)C)C(C)C (Ac-LKRVWKRV[S5]KLL[S5]RYWRQLKKPVR-NH2; staple (Z) 9-13) | 5 (≈ 1.54 µM) | 9.6 (≈ 2.96 µM) | 2.5 (≈ 0.771 µM) | 38 (≈ 11.7 µM)
7 | CC(=O)N[C@@H](CC(C)C)C(=O)N[C@@H](CCCCN)C(=O)N[C@@H](CCCNC(=N)N)C(=O)N[C@H](C(=O)N[C@@H](Cc1c[nH]c2ccccc12)C(=O)N[C@@H](CCCCN)C(=O)N[C@@H](CCCNC(=N)N)C(=O)N[C@]1(C)CCCCCC/C=C\CCC[C@@](C)(C(=O)N[C@@H](Cc2c[nH]c3ccccc23)C(=O)N[C@@H](CCCNC(=N)N)C(=O)N[C@@H](CCC(N)=O)C(=O)N[C@@H](CC(C)C)C(=O)N[C@@H](CCCCN)C(=O)N[C@@H](CCCCN)C(=O)N2CCC[C@H]2C(=O)N[C@H](C(=O)N[C@@H](CCCNC(=N)N)C(N)=O)C(C)C)NC(=O)[C@H](CCCNC(=N)N)NC(=O)[C@H](CCCCN)NC(=O)[C@H](CC(C)C)NC(=O)[C@H](CC(C)C)NC(=O)[C@H](CCCCN)NC(=O)[C@H](Cc2ccccc2)NC1=O)C(C)C (Ac-LKRVWKR[R8]FKLLKR[S5]WRQLKKPVR-NH2; staple (Z) 8-15) | 5 (≈ 1.52 µM) | 19 (≈ 5.76 µM) | 9.7 (≈ 2.94 µM) | 38 (≈ 11.5 µM)
8 | CC(=O)N[C@]1(C)CCCCCC/C=C\CCC[C@@](C)(C(=O)N[C@@H](Cc2ccccc2)C(=O)N[C@@H](CCCCN)C(=O)N[C@@H](CC(C)C)C(=O)N[C@@H](CC(C)C)C(=O)N[C@@H](CCCCN)C(=O)N[C@@H](CCCNC(=N)N)C(=O)N[C@@H](Cc2ccc(O)cc2)C(=O)N[C@@H](Cc2c[nH]c3ccccc23)C(=O)N[C@@H](CCCNC(=N)N)C(=O)N[C@@H](CCC(N)=O)C(=O)N[C@@H](CC(C)C)C(=O)N[C@@H](CCCCN)C(=O)N[C@@H](CCCCN)C(=O)N2CCC[C@H]2C(=O)N[C@H](C(=O)N[C@@H](CCCNC(=N)N)C(N)=O)C(C)C)NC(=O)[C@H](CCCNC(=N)N)NC(=O)[C@H](CCCCN)NC(=O)[C@H](Cc2c[nH]c3ccccc23)NC(=O)[C@H](C(C)C)NC(=O)[C@H](CCCNC(=N)N)NC(=O)[C@H](CCCCN)NC1=O (Ac-[R8]KRVWKR[S5]FKLLKRYWRQLKKPVR-NH2; staple (Z) 1-8) | 9.8 (≈ 2.93 µM) | 9.6 (≈ 2.87 µM) | 4.9 (≈ 1.46 µM) | 38 (≈ 11.4 µM)
9 | CC(=O)N[C@@H](CC(C)C)C(=O)N[C@@H](CCCCN)C(=O)N[C@@H](CCCNC(=N)N)C(=O)N[C@H](C(=O)N[C@@H](Cc1c[nH]c2ccccc12)C(=O)N[C@@H](CCCCN)C(=O)N[C@@H](CCCNC(=N)N)C(=O)N[C@H](C(=O)N[C@@H](Cc1ccccc1)C(=O)N[C@@H](CCCCN)C(=O)N[C@@H](CC(C)C)C(=O)N[C@@H](CC(C)C)C(=O)N[C@@H](CCCCN)C(=O)N[C@@H](CCCNC(=N)N)C(=O)N[C@@H](Cc1ccc(O)cc1)C(=O)N[C@@H](Cc1c[nH]c2ccccc12)C(=O)N[C@@H](CCCNC(=N)N)C(=O)N[C@@]1(C)CCC/C=C\CCC[C@@](C)(C(=O)N[C@H](C(=O)N[C@@H](CCCNC(=N)N)C(N)=O)C(C)C)NC(=O)[C@H](CCCCN)NC(=O)[C@H](CCCCN)NC(=O)[C@H](CC(C)C)NC1=O)C(C)C)C(C)C (Ac-LKRVWKRVFKLLKRYWR[S5]LKK[S5]VR-NH2; staple (Z) 18-22) | 9.8 (≈ 2.98 µM) | 37.7 (≈ 11.5 µM) | 4.9 (≈ 1.49 µM) | 38 (≈ 11.5 µM)
10 | CC(=O)N[C@@H](CC(C)C)C(=O)N[C@@H](CCCCN)C(=O)N[C@@H](CCCNC(=N)N)C(=O)N[C@]1(C)CCCCCC/C=C\CCC[C@@](C)(C(=O)N[C@@H](CC(C)C)C(=O)N[C@@H](CCCCN)C(=O)N[C@@H](CCCNC(=N)N)C(=O)N[C@@H](Cc2ccc(O)cc2)C(=O)N[C@@H](Cc2c[nH]c3ccccc23)C(=O)N[C@@H](CCCNC(=N)N)C(=O)N[C@@H](CCC(N)=O)C(=O)N[C@@H](CC(C)C)C(=O)N[C@@H](CCCCN)C(=O)N[C@@H](CCCCN)C(=O)N2CCC[C@H]2C(=O)N[C@H](C(=O)N[C@@H](CCCNC(=N)N)C(N)=O)C(C)C)NC(=O)[C@H](CCCCN)NC(=O)[C@H](Cc2ccccc2)NC(=O)[C@H](C(C)C)NC(=O)[C@H](CCCNC(=N)N)NC(=O)[C@H](CCCCN)NC(=O)[C@H](Cc2c[nH]c3ccccc23)NC1=O (Ac-LKR[R8]WKRVFK[S5]LKRYWRQLKKPVR-NH2; staple (Z) 4-11) | 5 (≈ 1.49 µM) | 37.7 (≈ 11.3 µM) | 4.9 (≈ 1.46 µM) | 38 (≈ 11.4 µM)
